# Columns and labels:
# db/^+m mice = assay: Food intake amount and body weight, 5 week-continuous oral administration, non-obese db/+m mice; type: in vivo, mouse; conditions: (±)-baclofen 2.7 mg/dl in drinking water, 5 weeks
# Method: 5 week-old male C57BL/KsJ-db/^+m mice (db/^+m mice: body weight 19 to 23 g, Japan SLC, Inc.) were purchased and individually fed in tip cages. To the db/^+m mice, normal pellet diet (CE-2) was administered under free water intake and free food intake. A body weight and a food intake amount over 24 hours were measured every day from the start of feeding. On day 3 after the start of feeding, blood was taken from an orbit after 6 hour-fasting and a blood glucose level and a blood insulin concentration were measured. The db/^+m mice were divided into two groups (10 mice per each group) so that a body weight, a 24 hour-food intake amount, a blood glucose level, and a blood insulin concentration were equal, and defined to be a control group and a baclofen treated group. After division into the groups, from day 5 after the start of feeding, (±)-baclofen was dissolved in drinking water and 5 week-continuous oral administration was started in the baclofen treated group. (±)-baclofen was dissolved in drinking water at a concentration of 2.7 mg/dl used in the high concentration treated group in the experiment of db/db mice. A food intake amount and a body weight of the db/^+m mice were measured over time, and a rectal temperature was measured 5 weeks after the start of the administration. Blood was taken after the 5-week administration of (±)-baclofen, and the db/^+m mice were sacrificed by cervical luxation.
# 5 week-old male C57BL/KsJ-db/db mice (db/db mice: body weight 19 to 25 g, Japan SLC, Inc.) were purchased and individually fed in tip cages. Normal pellet diet (CE-2) was administered to the db/db mice under free water intake and free food intake. A body weight and a food intake amount over 24 hours were measured every day from the start of feeding. On day 3 after the start of feeding, blood was taken from an orbit after 6 hour-fasting and a blood glucose level and a blood insulin concentration were measured. The db/db mice were divided into three groups (10 mice per each group) so that a body weight, a 24 hour-food intake amount, a blood glucose level, and a blood insulin concentration were equal and defined to be a control group, an SKF97541 treated group and a 3-APPA treated group. SKF97541 and 3-APPA were dissolved in drinking water at respective concentrations of 10×10^−6 M and 100×10^−6 M, and continuously orally administered for 5 weeks, and a food intake amount and a body weight were measured over time during the administration period. SKF97541 (10×10^−6 M) or 3-APPA (100×10^−6M) was dissolved in drinking water and orally administered also to db/^+m mice, and a food intake amount and a body weight were measured over time in the same manner.
# db/db mice = assay: Food intake amount and body weight, 5 week-continuous oral administration in drinking water, db/db mice; type: in vivo, mouse; conditions: for body weight increase / food intake amount: oral, 5 weeks
# Method: 5 week-old male C57BL/KsJ-db/db mice (db/db mice: body weight 19 to 25 g, Japan SLC, Inc.) were purchased and individually fed in tip cages. For the db/db mice, normal pellet diet (CE-2) was administered under free water intake and free food intake. A body weight and a food intake amount over 24 hours were measured every day from the start of feeding. On day 3 after the start of feeding, blood was taken from an orbit after 6 hour-fasting and a blood glucose level and a blood insulin concentration were measured. The db/db mice were divided into three groups (10 mice per each group) so that a body weight, a 24 hour-food intake amount, a blood glucose level, and a blood insulin concentration were equal, and defined to be a control group, a low concentration baclofen treated group, and a high concentration baclofen treated group. After division into the groups, from day 5 after the start of feeding, (±)-baclofen was dissolved in drinking water and 5 week-continuous oral administration to the baclofen treated groups was started. (±)-baclofen was dissolved in drinking water at a concentration of 1.1 mg/dl in the low concentration treated group and at a concentration of 2.7 mg/dl in the high concentration treated group. A food intake amount and a body weight were measured over time during the period of 5 week-administration of (±)-baclofen, blood was taken after the end of the 5-week administration, and the db/db mice were sacrificed by cervical luxation. Brains, epididymal white adipose tissues, subcutaneous white adipose tissues and brown adipose tissues were surgically removed. The brains and brown adipose tissues were frozen in dry ice and liquid nitrogen immediately after the removal and then preserved at −80° C. The epididymal white adipose tissues and subcutaneous white adipose tissues were measured in weights, and then fixed in 4% formaldehyde and preserved at 4° C.
# 5 week-old male C57BL/KsJ-db/db mice (db/db mice: body weight 19 to 25 g, Japan SLC, Inc.) were purchased and individually fed in tip cages. For the db/db mice, normal pellet diet (CE-2) was administered under free water intake and free food intake. A body weight and a food intake amount over 24 hours were measured everyday from the start of feeding. On day 3 after the start of feeding, blood was taken from an orbit after 6 hour-fasting and a blood glucose level and a blood insulin concentration were measured. […] After division into the groups, from day 5 after the start of feeding, R-baclofen and S-baclofen were dissolved in drinking water and 5 week-continuous oral administration was started. […] A food intake amount and a body weight were measured over time, and a rectal temperature was measured 5 weeks after the start of the administration. Blood was taken after the 5-week administration of baclofen, and the db/db mice were sacrificed by cervical luxation.
# 5 week-old male C57BL/KsJ-db/db mice (db/db mice: body weight 19 to 25 g, Japan SLC, Inc.) were purchased and individually fed in tip cages. Normal pellet diet (CE-2) was administered to the db/db mice under free water intake and free food intake. A body weight and a food intake amount over 24 hours were measured every day from the start of feeding. On day 3 after the start of feeding, blood was taken from an orbit after 6 hour-fasting, and a blood glucose level and a blood insulin concentration were measured. The db/db mice were divided into five groups (10 mice per each group) so that a body weight, a 24 hour-food intake amount, a blood glucose level, and a blood insulin concentration were equal, and defined to be a control group and baclofen treated groups. (±)-baclofen was dissolved in drinking water at respective concentrations of 4×10^−6 M, 10×10^−6 M, 40×10^−6 M, and 100×10^−6 M, and continuously orally administered to the baclofen treated groups for 5 weeks. A food intake amount, a body weight and a water-drinking amount were measured over time during the period of 5 week-administration of (±)-baclofen. […]
# [1] = (±)-baclofen 1.1 mg/dl (low) and 2.7 mg/dl (high) in drinking water, vs control
# [2] = (±)-baclofen 1.1 and 2.7 mg/dl in drinking water, continued until end of experiment
# [3] = (±)-baclofen 4×10^−6 M in drinking water (roughly 0.2 mg/kg/day)
# [4] = (±)-baclofen 10×10^−6 M in drinking water (roughly 0.5 mg/kg/day)
# [5] = (±)-baclofen 40×10^−6 M in drinking water (roughly 2 mg/kg/day)
# [6] = (±)-baclofen 100×10^−6 M in drinking water (roughly 5 mg/kg/day)
structure (smiles),measurement,setting,value
"NCC(CC(=O)O)c1ccc(Cl)cc1 (racemic) [(±)-baclofen, (RS)-4-amino-3-(4-chlorophenyl)butanoic acid]",body weight,db/^+m mice,did not give significant effects
same,food intake amount,db/^+m mice,did not give significant effects
same,body weight increase,db/db mice; [1],significant body weight increase suppression
same,food intake amount,db/db mice; [1],significantly suppressed
same,time after start of administration from which body weight increase suppression was significant,db/db mice; [2],1 week
same,time after start of administration from which food intake suppression was significant,db/db mice; [2],1 week
same,time after start of administration from which body weight increase suppression was significant,db/db mice; [3],4 weeks
same,time after start of administration from which food intake suppression was significant,db/db mice; [3],4 weeks
same,body weight increase,db/db mice; [3],Significant suppression
same,food intake amount,db/db mice; [3],Significant suppression
same,time after start of administration from which body weight increase suppression was significant,db/db mice; [4],2 weeks
same,time after start of administration from which food intake suppression was significant,db/db mice; [4],2 weeks
same,body weight increase,db/db mice; [4],Significant suppression
same,food intake amount,db/db mice; [4],Significant suppression
same,time after start of administration from which body weight increase suppression was significant,db/db mice; [5],1 week
same,time after start of administration from which food intake suppression was significant,db/db mice; [5],1 week
same,body weight increase,db/db mice; [5],significantly suppressed
same,food intake amount,db/db mice; [5],significantly suppressed
same,time after start of administration from which body weight increase suppression was significant,db/db mice; [6],1 week
same,time after start of administration from which food intake suppression was significant,db/db mice; [6],1 week
same,body weight increase,db/db mice; [6],significantly suppressed
same,food intake amount,db/db mice; [6],significantly suppressed
